Results on 3 compounds are retold here after ChEMBL document CHEMBL6071160, “Identification of a novel 10-hydroxyevodiamine prodrug as a potent topoisomerase inhibitor with improved aqueous solubility for treatment of hepatocellular carcinoma” (Eur J Med Chem, 2024).

Data set [1] deals with Huh-7. Put plainly: Antiproliferative activity against human Huh-7 cells assessed as inhibition of cell proliferation incubated for 72 hrs by MTT assay. Conditions: Huh-7, 72 h. The class given is functional, cell-based. (In general: Tetrazolium dyes change colour on reduction, which living cells bring about.)
Data set [2] in a line: Aqueous solubility of the compound […] measured after 72 hrs in shaking by HPLC analysis. The class given is physicochemical.
The subject of data set [3] is Huh-7. Put plainly: In vivo antitumor activity against human Huh-7 cells subcutaneously injected into BALB/C nude mouse assessed as tumor growth inhibition at 10 mg/kg, ip administered once daily measured after 14 days. In kind it is functional. Conditions: Huh-7, 336 h, time 14 day, read-out: TGI.
The test system of data set [4] is Huh-7. Put plainly: Induction of cell cycle arrest in human Huh-7 cells assessed as accumulation of cells at G1 phase 80 nM measured after 24 hrs by flow cytometric assay (reference value: 63.01%). In kind it is functional. A general note: Flow cytometry measures light scatter and fluorescence of single cells or particles in a stream.
For data set [5], the system named is Huh-7. Put plainly: Induction of cell cycle arrest in human Huh-7 cells assessed as accumulation of cells at G2 phase 80 nM measured after 24 hrs by flow cytometric assay (reference value: 13.66%). The class given is functional.
Data set [6] deals with Huh-7. The experiment in a line: Induction of cell cycle arrest in human Huh-7 cells assessed as accumulation of cells at S phase 80 nM measured after 24 hrs by flow cytometric assay (reference value: 23.33%). The class given is functional.
For data set [7], the system named is SK-HEP1. The experiment in a line: Induction of cell cycle arrest in human SK-HEP1 cells assessed as accumulation of cells at G1 phase 80 nM measured after 24 hrs by flow cytometric assay (reference value: 47.55%). In kind it is functional.
In data set [8] the test system is SK-HEP1. Put plainly: Induction of cell cycle arrest in human SK-HEP1 cells assessed as accumulation of cells at G2 phase 80 nM measured after 24 hrs by flow cytometric assay (reference value: 22.41%). In kind it is functional.
Data set [9] concerns SK-HEP1. The experiment in a line: Induction of cell cycle arrest in human SK-HEP1 cells assessed as accumulation of cells at S phase 80 nM measured after 24 hrs by flow cytometric assay (reference value: 30.04%). In kind it is functional.
The subject of data set [10] is Huh-7. The experiment in a line: Induction of apoptosis in human Huh-7 cells assessed as viable cells at 80 nM measured after 24 hrs by Annexin-V-FITC/PI analysis (reference value: 97.46%). In kind it is functional. Conditions: read-out: Activity.
Data set [11] deals with Huh-7. The experiment in a line: Induction of apoptosis in human Huh-7 cells assessed as early apoptotic cells at 80 nM measured after 24 hrs by Annexin-V-FITC/PI analysis (reference value: 1.04%). In kind it is functional.
Data set [12] deals with Huh-7. Put plainly: Induction of apoptosis in human Huh-7 cells assessed as late apoptotic cells at 80 nM measured after 24 hrs by Annexin-V-FITC/PI analysis (reference value: 1.23%). In kind it is functional.
Data set [13] has as its system Huh-7. The experiment in a line: Induction of apoptosis in human Huh-7 cells assessed as necrotic cells at 80 nM measured after 24 hrs by Annexin-V-FITC/PI analysis (reference value: 0.27%). In kind it is functional.
In data set [14] the test system is SK-HEP1. The experiment in a line: Induction of apoptosis in human SK-HEP1 cells assessed as viable cells at 80 nM measured after 24 hrs by Annexin-V-FITC/PI analysis (reference value: 97.20%). In kind it is functional. As to conditions: read-out: Activity.
In data set [15] the test system is SK-HEP1. Put plainly: Induction of apoptosis in human SK-HEP1 cells assessed as early apoptotic cells at 80 nM measured after 24 hrs by Annexin-V-FITC/PI analysis (reference value: 1.45%). The class given is functional.
For data set [16], the system named is SK-HEP1. Put plainly: Induction of apoptosis in human SK-HEP1 cells assessed as late apoptotic cells at 80 nM measured after 24 hrs by Annexin-V-FITC/PI analysis (reference value: 0.64%). The class given is functional.
In data set [17] the test system is SK-HEP1. Put plainly: Induction of apoptosis in human SK-HEP1 cells assessed as necrotic cells at 80 nM measured after 24 hrs by Annexin-V-FITC/PI analysis (reference value: 0.70%). The class given is functional.
For data set [18], the system named is Huh-7. The experiment in a line: Induction of apoptosis in human Huh-7 cells assessed as loss of mitochondrial membrane potential by measuring JC-1 stained cells at 80 nM measured after 24 hrs by JC-1 staining based flow cytometry (reference value: 2.27%). The class given is functional.
Data set [19] has as its system SK-HEP1. The experiment in a line: Induction of apoptosis in human SK-HEP1 cells assessed as loss of mitochondrial membrane potential by measuring JC-1 stained cells at 80 nM measured after 24 hrs by JC-1 staining based flow cytometry (reference value: 0.49%). In kind it is functional.
Data set [20] concerns Huh-7. The experiment in a line: Induction of apoptosis in human Huh-7 cells assessed as ROS generation by measuring DCFH2-DA stained cells at 80 nM measured after 24 hrs […] (reference value: 0.45%). In kind it is functional.
In data set [21] the test system is SK-HEP1. Put plainly: Induction of apoptosis in human SK-HEP1 cells assessed as ROS generation by measuring DCFH2-DA stained cells at 80 nM measured after 24 hrs […] (reference value: 0.14%). In kind it is functional.
The subject of another data set is SMMC-7721. Put plainly: Antiproliferative activity against human SMMC-7721 cells assessed as inhibition of cell proliferation incubated for 72 hrs by MTT assay. The class given is functional, cell-based. As to conditions: SMMC-7721, 72 h.
Data set [22] is described as follows: Antiproliferative activity against human Doxorubicin-resistant SMMC-7721 cell assessed as inhibition of cell proliferation incubated for 72 hrs by MTT assay. The class given is functional, cell-based. Conditions: SMMC-7721, 72 h.
Data set [23] in a line: Drug resistance index, ratio of IC50 for antiproliferative activity against human SMMC-7721 cells to antiproliferative activity against human Doxorubicin-resistant SMMC-7721 cells. The class given is functional.

The structures appear in SMILES notation. pIC50: −log10 of the molar value. Converted amounts (≈) assume the structure as drawn.

As a reminder, the pIC50 is the IC50 on a negative log10 scale, so that one unit is a factor of ten. What is called thermodynamic solubility is solubility found after equilibrating the solid with the medium.

In the case of `CC(=O)Oc1ccc2[nH]c3c(c2c1)CCN1C(=O)c2cc(F)cc(F)c2N(c2cccc(F)c2)C31` (centres undefined), the pIC50 in the data set with Huh-7 [1] is 7.40. Further, in data set [2], the thermodynamic solubility at 72 h was determined as 2.4 µg/mL (≈ 5.03 µM). Further, the inhibition in vivo at 10 mg/kg in the data set on Huh-7 [3] is 40%. Besides, the Activity with Huh-7 [4] is 18.15%; in the data set on Huh-7 [5], 70.08%; in the data set on Huh-7 [6], 11.77%; in the data set on SK-HEP1 [7] it was 11.73%; in the data set on SK-HEP1 [8] it was 64.96%; in the data set with SK-HEP1 [9], 23.31%. For the same compound, the Activity with Huh-7 [11] amounted to 6.38%; with Huh-7 [12], 10.32%; in the data set with Huh-7 [13] it was 0.83%; in the data set on SK-HEP1 [15] it was 21.32%; in the data set with SK-HEP1 [16], 9.72%; in the data set on SK-HEP1 [17] it was 0.85%. Besides, the Activity is listed as 12.03% in the data set with Huh-7 [18], 12.96% in the data set on SK-HEP1 [19], 17.42% in the data set on Huh-7 [20] and 57.06% in the data set on SK-HEP1 [21]. Also, the figures for the viability at 0.08 µM in the data set with Huh-7 [10] and in the data set with SK-HEP1 [14] were 82.5% and 68.1%, respectively.
For `O=C1c2cc(F)cc(F)c2N(c2cccc(F)c2)C2c3[nH]c4ccc(O)cc4c3CCN12` (centres undefined), the pIC50 with Huh-7 [1] is 7.30. Also, the thermodynamic solubility at 72 h in data set [2] is 1 µg/mL (≈ 2.3 µM). For the same compound, the Activity came to 5.79% in the data set on Huh-7 [4]; 86.71% with Huh-7 [5]; 7.51% with Huh-7 [6]; 8.18% in the data set with SK-HEP1 [7]; 66.31% with SK-HEP1 [8]; 25.51% in the data set with SK-HEP1 [9]. Besides, the Activity worked out at 6.84% with Huh-7 [11]; 10.46% in the data set on Huh-7 [12]; 1.63% with Huh-7 [13]; 22.1% with SK-HEP1 [15]; 10.49% in the data set on SK-HEP1 [16]; 1.19% in the data set with SK-HEP1 [17]. In addition, the Activity was 10.62% with Huh-7 [18], 10.75% with SK-HEP1 [19], 31.15% in the data set on Huh-7 [20] and 61.44% with SK-HEP1 [21]. Besides, the viability at 0.08 µM is 81.1% in the data set with Huh-7 [10] and 66.2% in the data set on SK-HEP1 [14].
In the case of `COc1cccc2c1C(=O)c1c(O)c3c(c(O)c1C2=O)C[C@@](O)(C(=O)CO)C[C@@H]3O[C@H]1C[C@H](N)[C@H](O)[C@H](C)O1` [DOXORUBICIN], the figures for the pIC50 (with SMMC-7721; in [22]) were 6.82 and 5.87, respectively. For the same compound, in data set [23], the Ratio worked out at 9.
